# Data published in the NIST ThermoML archive (doi:10.1021/je300134c).
# ± gives the expanded uncertainty stated by the source.
# Key:
# [1] = Liquid; for mass density: Vibrating tube method; for speed of sound: Sing-around technique in a fixed-path interferometer
# [2] = xn = mol fraction of the nth substance listed; conditions: 101 kPa, Liquid, x2 = 0; for mass density: Vibrating tube method; for speed of sound: Sing-around technique in a fixed-path interferometer
Structure (SMILES),speed of sound ([2]; 318.15 K) [m/s],speed of sound ([2]; 328.15 K) [m/s],mass density ([2]; 328.15 K) [kg/m3],speed of sound ([2]; 338.15 K) [m/s],mass density ([2]; 338.15 K) [kg/m3],"speed of sound ([1]; 288.15 K, 101.33 kPa) [m/s]","mass density ([1]; 288.15 K, 101.33 kPa) [kg/m3]","speed of sound ([1]; 298.15 K, 101.33 kPa) [m/s]","mass density ([1]; 298.15 K, 101.33 kPa) [kg/m3]","speed of sound ([1]; 308.15 K, 101.33 kPa) [m/s]","mass density ([1]; 308.15 K, 101.33 kPa) [kg/m3]","speed of sound ([1]; 318.15 K, 101.33 kPa) [m/s]","mass density ([1]; 318.15 K, 101.33 kPa) [kg/m3]","speed of sound ([1]; 328.15 K, 101.33 kPa) [m/s]","mass density ([1]; 328.15 K, 101.33 kPa) [kg/m3]","speed of sound ([1]; 338.15 K, 101.33 kPa) [m/s]","mass density ([1]; 338.15 K, 101.33 kPa) [kg/m3]",other results
O [water],,,,,,,,,,,,,,,,,,"mass density ([1]; 278.15 K, 101 kPa): 999.99 ± 0.03 kg/m3; speed of sound ([1]; 318.15 K, 101 kPa): 1536.8 ± 0.76 m/s; speed of sound ([1]; 328.15 K, 101 kPa): 1547.7 ± 0.76 m/s; mass density ([1]; 328.15 K, 101 kPa): 985.7 ± 0.04 kg/m3; speed of sound ([1]; 338.15 K, 101 kPa): 1553.6 ± 0.76 m/s; mass density ([1]; 338.15 K, 101 kPa): 980.56 ± 0.04 kg/m3"
O [water] + CCCC[n+]1ccn(CC)c1.O=S(=O)([O-])C(F)(F)F,1536.8 ± 0.76,1547.7 ± 0.76,985.7 ± 0.04,1553.6 ± 0.76,980.56 ± 0.04,,,,,,,,,,,,,mass density ([2]; 278.15 K): 999.99 ± 0.03 kg/m3
O [water] + CCCCn1cc[n+](C)c1.O=S(=O)([O-])C(F)(F)F,1536.8 ± 0.76,1547.7 ± 0.76,985.7 ± 0.04,1553.6 ± 0.76,980.56 ± 0.04,,,,,,,,,,,,,
O [water] + CCCC[N+]1(C)CCCC1.O=S(=O)([O-])C(F)(F)F,1536.8 ± 0.76,1547.7 ± 0.76,985.7 ± 0.04,1553.6 ± 0.76,980.56 ± 0.04,,,,,,,,,,,,,mass density ([2]; 278.15 K): 999.99 ± 0.03 kg/m3
CCCC[n+]1ccn(CC)c1.O=S(=O)([O-])C(F)(F)F,,,,,,1396.3 ± 2.1,1269.97 ± 1.4,1373.1 ± 2.1,1262.21 ± 1.4,1350.6 ± 2.1,1254.44 ± 1.4,1328.6 ± 2.1,1246.71 ± 1.4,1307.1 ± 2.1,1239.01 ± 1.4,1286.1 ± 2.1,1231.35 ± 1.4,"speed of sound ([1]; 278.15 K, 101.33 kPa): 1420.6 ± 2.1 m/s; mass density ([1]; 278.15 K, 101.33 kPa): 1278.02 ± 1.5 kg/m3"
CCCC[N+]1(C)CCCC1.O=S(=O)([O-])C(F)(F)F [1-butyl-1-methylpyrrolidinium trifluoromethanesulfonate],,,,,,1486.1 ± 1.2,1259.74 ± 0.45,1461.4 ± 1.2,1252.26 ± 0.44,1437.8 ± 1.2,1245.09 ± 0.44,1414.9 ± 1.2,1237.94 ± 0.43,1392.7 ± 1.2,1230.81 ± 0.42,1371.1 ± 1.2,1223.73 ± 0.42,"speed of sound ([1]; 278.15 K, 101.33 kPa): 1513.5 ± 1.2 m/s; mass density ([1]; 278.15 K, 101.33 kPa): 1267.23 ± 0.45 kg/m3"
CCCCn1cc[n+](C)c1.O=S(=O)([O-])C(F)(F)F [1-butyl-3-methylimidazolium trifluoromethanesulfonate],,,,,,1416 ± 2.1,1304.56 ± 1.5,1393 ± 2.1,1296.67 ± 1.5,1370.7 ± 2.1,1288.78 ± 1.5,1349 ± 2.1,1280.95 ± 1.5,1327.8 ± 2.1,1273.16 ± 1.4,1307 ± 2.1,1265.44 ± 1.4,
